Data from patent US20260184710A1, “CASITAS B-LINEAGE LYMPHOMA PROTOONCOGENE B (CBL-B) DEGRADING COMPOUNDS AND ASSOCIATED METHODS OF USE” (Arvinas Operations, Inc., priority 2022, published 2026).

Tests used:
Cbl-b [1] = biological target: T1, Cbl-b (Homo sapiens, UniProt Q13191); experiment: Cbl-b Degradation Method A (FACS, anti-Cbl-b antibody staining); type: cell-based; conditions: Cbl-b-HiBit KI Jurkat Cells, incubated at least 20 hours; for DC50: half maximal degradation, read-out: Cbl-b Degredation Method A IC50; for Dmax: Jurkat, maximum degradation observed, read-out: Cbl-b Degredation Method A Dmax (%)
T1 construct: Cbl-b-HiBit KI Jurkat Cells were purchased from Promega; host or cells: Cbl-b-HiBiT knock-in Jurkat cells
Outline: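 Readout is flow cytometry of fixed, permeabilized cells immunostained for Cbl-b (primary 1:200, AF488 secondary). Cells were Cbl-b-HiBit knock-in Jurkat, exposed to compound ≥20 h at 37 °C; half-maximal degradation concentration (DC50) and maximal degradation (Dmax) calculated relative to control.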

Cbl-b [2] = biological target: T1, Cbl-b; experiment: Cbl-b Degradation Method B (Nano-Glo HiBiT lytic detection); type: cell-based; conditions: Cbl-b-HiBit KI Jurkat Cells, incubated at least 6-24 hours; for DC50: half maximal degradation, read-out: Cbl-b Degredation Method B IC50; for Dmax: maximum degradation observed, read-out: Cbl-b Degredation Method B Dmax (%)
Outline: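 An 11-point, 3-fold compound dilution was applied for 6-24 hours to Jurkat cells carrying HiBiT-tagged endogenous Cbl-b. Lytic HiBiT luminescence quantified residual protein. Outputs are DC50 and Dmax relative to DMSO control.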

T1 sequence (Q13191 whole entry): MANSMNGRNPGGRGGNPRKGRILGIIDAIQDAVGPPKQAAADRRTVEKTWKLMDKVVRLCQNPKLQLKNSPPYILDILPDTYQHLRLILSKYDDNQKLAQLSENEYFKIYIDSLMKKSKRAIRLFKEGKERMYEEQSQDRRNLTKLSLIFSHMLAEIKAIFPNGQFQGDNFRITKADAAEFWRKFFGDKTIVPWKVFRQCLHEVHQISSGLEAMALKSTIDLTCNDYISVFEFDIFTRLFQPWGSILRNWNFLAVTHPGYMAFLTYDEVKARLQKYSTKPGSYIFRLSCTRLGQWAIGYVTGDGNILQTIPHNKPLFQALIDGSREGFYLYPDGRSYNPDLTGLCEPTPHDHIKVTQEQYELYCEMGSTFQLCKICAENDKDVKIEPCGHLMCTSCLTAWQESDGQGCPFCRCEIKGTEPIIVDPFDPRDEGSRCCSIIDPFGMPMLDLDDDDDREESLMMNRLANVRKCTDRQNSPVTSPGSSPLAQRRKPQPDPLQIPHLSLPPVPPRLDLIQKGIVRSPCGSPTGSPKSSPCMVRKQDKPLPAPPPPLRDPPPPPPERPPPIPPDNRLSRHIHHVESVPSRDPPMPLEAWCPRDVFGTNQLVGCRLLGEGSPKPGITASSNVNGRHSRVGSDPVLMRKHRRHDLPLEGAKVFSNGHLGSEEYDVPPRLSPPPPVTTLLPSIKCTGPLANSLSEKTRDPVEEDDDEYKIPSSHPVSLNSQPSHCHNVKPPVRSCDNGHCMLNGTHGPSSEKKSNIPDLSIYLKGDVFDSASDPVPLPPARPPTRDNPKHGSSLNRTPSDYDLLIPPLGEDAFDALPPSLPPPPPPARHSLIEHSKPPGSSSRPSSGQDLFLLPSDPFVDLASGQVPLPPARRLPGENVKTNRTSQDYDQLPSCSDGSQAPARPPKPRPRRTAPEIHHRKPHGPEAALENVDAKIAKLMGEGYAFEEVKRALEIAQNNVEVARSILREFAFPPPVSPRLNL

Question: Which results are given for Cn1cnnc1CC1(c2cccc(N3Cc4c(cc(CN5CC[C@H](CN6CCN(C[C@H]7CC[C@H](OC8CCN(c9ccc%10c(c9F)CN(C9CCC(=O)NC9=O)C%10=O)CC8)CC7)CC6)C5)cc4C(F)(F)F)C3=O)c2)COC1 (stereo partly drawn) [Example 10, 3-[4-fluoro-1-oxo-5-(4-{[(1r, 4r)-4-[(4-{[(3S)-1-{[2-(3-{3-[(4-methyl-4H-1,2,4-triazol-3-yl)methyl]oxetan-3-yl}phenyl)-3-oxo-7-(trifluoromethyl)-2,3-dihydro-1H-isoindol-5-yl]methyl}pyrrolidin-3-yl]methyl}piperazin-1-yl)methyl]cyclohexyl]oxy}piperidin-1-yl)-2,3-dihydro-1H-isoindol-2-yl]piperidine-2,6-dione]?
Answer: DC50 (Cbl-b [1]): < 5 nM; Dmax (Cbl-b [1]): > 70%; DC50 (Cbl-b [2]): < 5 nM; Dmax (Cbl-b [2]): > 70%

Question: Cn1cnnc1CC1(c2cccc(N3Cc4c(cc(N5CCC(CN6CC7(CCN(c8ccc9c(c8)C(=O)N(C8CCC(=O)NC8=O)C9=O)CC7)C6)CC5)cc4C(F)(F)F)C3=O)c2)COC1 (centres unmarked) [Example 11, 2-(2,6-dioxo-3-piperidyl)-5-[2-[[1-[2-[3-[3-[(4-methyl-1,2,4-triazol-3-yl)methyl]oxetan-3-yl]phenyl]-3-oxo-7-(trifluoromethyl)isoindolin-5-yl]-4-piperidyl]methyl]-2,7-diazaspiro[3.5]nonan-7-yl]isoindoline-1,3-dione] was tested. Which DC50 (Cbl-b [1]) did it give?
Answer: Its DC50 is 5 to 50 nM.

Question: And the Dmax (Cbl-b [1])?
Answer: Its Dmax is under 35%.

Question: And the DC50 (Cbl-b [2])?
Answer: The DC50 was 5 to 50 nM.

Question: What about the Dmax (Cbl-b [2]) of the same compound?
Answer: The Dmax was under 35%.

Question: Cn1cnnc1CC1(c2cccc(N3Cc4c(cc(N5CCC(COCCOc6ccc7c(c6)C(=O)N(C6CCC(=O)NC6=O)C7=O)CC5)cc4C(F)(F)F)C3=O)c2)COC1 (centres unmarked) [Example 15, 2-(2,6-dioxo-3-piperidyl)-5-[2-[[1-[2-[3-[3-[(4-methyl-1,2,4-triazol-3-yl)methyl]oxetan-3-yl]phenyl]-3-oxo-7-(trifluoromethyl)isoindolin-5-yl]-4-piperidyl]methoxy]ethoxy]isoindoline-1,3-dione] was tested. Which DC50 (Cbl-b [1]) did it give?
Answer: Its DC50 is 50 to 500 nM.

Question: And the Dmax (Cbl-b [1])?
Answer: Its Dmax is 35 to 70%.

Question: What about the DC50 (Cbl-b [2]) of the same compound?
Answer: Its DC50 is over 500 nM.

Question: How did the DC50 (Cbl-b [1]) turn out when Cn1cnnc1CC1(c2cccc(N3Cc4c(cc(N5CCC[C@H](CN6CCC(CN7CCC(CN8CCN(c9ccc%10c(c9)C(=O)N(C9CCC(=O)NC9=O)C%10=O)CC8)CC7)CC6)C5)cc4C(F)(F)F)C3=O)c2)COC1 (stereo partly drawn) [Example 16, 2-(2,6-dioxo-3-piperidyl)-5-[4-[[1-[[1-[[(3R)-1-[2-[3-[3-[(4-methyl-1,2,4-triazol-3-yl)methyl]oxetan-3-yl]phenyl]-3-oxo-7-(trifluoromethyl)isoindolin-5-yl]-3-piperidyl]methyl]-4-piperidyl]methyl]-4-piperidyl]methyl]piperazin-1-yl]isoindoline-1,3-dione] was run?
Answer: Its DC50 is 50 to 500 nM.

Question: What about the Dmax (Cbl-b [1]) of the same compound?
Answer: The Dmax was over 70%.

Question: And the DC50 (Cbl-b [2])?
Answer: Its DC50 is 5 to 50 nM.

Question: And the Dmax (Cbl-b [2])?
Answer: The Dmax was under 35%.

Question: For Cn1cnnc1CC1(c2cccc(N3Cc4c(cc(NCC[C@H]5CC[C@H](OC6CCN(c7ccc8c(c7F)CN(C7CCC(=O)NC7=O)C8=O)CC6)CC5)cc4C(F)(F)F)C3=O)c2)COC1 (some centres unmarked) [Example 17, 3-[4-fluoro-5-[4-[4-[2-[[2-[3-[3-[(4-methyl-1,2,4-triazol-3-yl)methyl]oxetan-3-yl]phenyl]-3-oxo-7-(trifluoromethyl)isoindolin-5-yl]amino]ethyl]cyclohexoxy]-1-piperidyl]-1-oxo-isoindolin-2-yl]piperidine-2,6-dione], which DC50 (Cbl-b [1]) is on record?
Answer: The DC50 was over 500 nM.

Question: What about the DC50 (Cbl-b [2]) of the same compound?
Answer: Its DC50 is over 500 nM.

Question: Which results are given for Cn1cnnc1CC1(c2cccc(NC(=O)c3cc(N4CC5(CCN(CC6CCN(c7ccc8c(c7)C(=O)N(C7CCC(=O)NC7=O)C8=O)CC6)CC5)C4)nc(C4CC4)n3)c2)COC1 (centres unmarked) [Example 18, 2-cyclopropyl-6-[7-[[1-[2-(2,6-dioxo-3-piperidyl)-1,3-dioxo-isoindolin-5-yl]-4-piperidyl]methyl]-2,7-diazaspiro[3.5]nonan-2-yl]-N-[3-[3-[(4-methyl-1,2,4-triazol-3-yl)methyl]oxetan-3-yl]phenyl]pyrimidine-4-carboxamide]?
Answer: DC50 (Cbl-b [1]): 50 to 500 nM; Dmax (Cbl-b [1]): < 35%; DC50 (Cbl-b [2]): > 500 nM
